{"source": "patent US20070003608A1", "about": "“Compounds, compositions and methods for the treatment of viral infections and other medical disorders” (priority 2005, published 2007)", "key": {"HIV-1 [1]": {"tested_on": "HIV-1", "assay": "HIV-1 plaque reduction assay in HT4-6C cells", "assay_type": "cell-based", "conditions": "HIV-1 plaque reduction EC50 compared with adefovir"}, "[2]": {"assay": "Cytotoxicity in vitro in MRC-5 human lung fibroblast cells, visual estimate of 50% reduction in cell number", "conditions": "human, MRC-5 human lung fibroblast cells"}, "Variola Major, Yamada": {"tested_on": "Variola Major, Yamada", "conditions": "cited from earlier work"}, "Cowpox": {"tested_on": "Cowpox", "conditions": "cited from earlier work"}, "Vero cells": {"tested_on": "Vero cells", "conditions": "50% cytotoxic concentration in Vero cells; cited from earlier work"}, "Vaccinia": {"tested_on": "Vaccinia", "conditions": "Vero cells, 1000 pfu/well, neutral red; average of 3 determinations; cited from earlier work"}, "[3]": {"assay": "Quantitative whole body autoradiograph after oral [2-14C] HDP-cidofovir", "conditions": "mouse, 4 hours after a 5 mg/kg oral dose of [2-14C] HDP-cidofovir"}, "[4]": {"tested_on": "Variola Major, Bangladesh", "conditions": "cited from earlier work"}, "Variola Minor Garcia": {"tested_on": "Variola Minor Garcia", "conditions": "cited from earlier work"}, "[5]": {"tested_on": "Human Cytomegalovirus (HCMV)", "assay": "HCMV antiviral assay, HCMV DNA quantified by DNA hybridization in MRC-5 cells", "assay_type": "cell-based"}, "HIV-1 [6]": {"tested_on": "HIV-1", "conditions": "cited from earlier work"}, "HT4-6C Cells": {"tested_on": "HT4-6C Cells", "conditions": "Table 6; cited from earlier work"}, "[7]": {"tested_on": "human lung fibroblast cells (MRC-5)", "assay": "Cytotoxicity in vitro in MRC-5 human lung fibroblast cells, visual estimate of 50% reduction in cell number", "conditions": "MRC-5 cells, 5 days; Table 2"}, "HSV-1": {"tested_on": "HSV-1", "conditions": "Human HSV replication in MRC-5 human lung fibroblasts, DNA reduction, about 24 h; average of two experiments (HDP-CDV single determination in duplicate); cited from earlier work"}, "[8]": {"tested_on": "human lung fibroblast cells (MRC-5)", "conditions": "Table 7; cited from earlier work"}, "[9]": {"conditions": "Human CMV replication in MRC-5 human lung fibroblasts, DNA reduction, average of 3 to 6 determinations (ADV single replication in duplicate), read-out: EC50"}}, "note": "Read-outs that look alike come from different tables or passages of the source.", "data": [{"smiles": "CCCCCCCCCCCCCCCCOCCCOP(=O)(O)COCCn1cnc2c(N)ncnc21", "note": "[HDP-ADV, 1-O-hexadecylpropanediol-3-adefovir]", "values": [{"measurement": "logs more active than adefovir itself", "setting": "HIV-1 [1]", "value": "more than 5 logs"}]}, {"smiles": "CCCCCCCCCCCCCCCCOCCCOP(=O)(O)COC(CO)Cn1ccc(N)nc1=O", "note": "(stereo not drawn) [HDP-CDV, hexadecyloxypropyl-cidofovir]", "values": [{"measurement": "CC50 at 5 days", "setting": "[2]", "value": 10, "unit": "µM"}, {"measurement": "EC50", "setting": "Variola Major, Yamada", "value": 0.0015, "unit": "µM"}, {"measurement": "EC50", "setting": "Cowpox", "value": "< 0.03", "unit": "µM"}, {"measurement": "CC50", "setting": "Vero cells", "value": "> 0.1", "unit": "µM"}, {"measurement": "EC50", "setting": "Vaccinia", "value": "< 0.03", "unit": "µM"}, {"measurement": "tissue distribution of drug", "setting": "[3]", "value": "distributed primarily in the GI tract as well as organs including the lung, heart, liver, and kidney"}, {"measurement": "EC50", "setting": "[4]", "value": 0.0015, "unit": "µM"}, {"measurement": "EC50", "setting": "Variola Minor Garcia", "value": 0.0006, "unit": "µM"}, {"measurement": "EC50", "setting": "[5]; Human betaherpesvirus 5, MRC5, Human CMV replication in MRC-5 human lung fibroblasts, DNA reduction, average of 3 to 6 determinations (ADV single replication in duplicate), read-out: EC50", "value": 0.002, "unit": "nM"}]}, {"smiles": "Nc1ncnc2c1ncn2CCOCP(=O)(O)O", "note": "[Adefovir, adefovir, reference compound]", "values": [{"measurement": "CC50 at 5 days", "setting": "[2]", "value": "> 1000", "unit": "µM"}, {"measurement": "EC50", "setting": "HIV-1 [6]; HIV replication in HT4-6C cells, plaque reduction, average of 4 experiments, Table 6, read-out: EC50", "value": 8.2, "unit": "µM"}, {"measurement": "EC50", "setting": "HIV-1 [6]; HIV-1 LAI infected HT4-6C cells, 3 days, preliminary experiments, Table 5, read-out: EC50, μM, in HIV-1 plaque reduction assay", "value": 16, "unit": "µM"}, {"measurement": "EC50", "setting": "[5]; Human betaherpesvirus 5, MRC5", "value": 210, "unit": "nM"}, {"measurement": "EC50", "setting": "[5]; Human betaherpesvirus 5, MRC5, 120 h, MRC-5 cells, 5 days, DNA hybridization, preliminary experiments, second TABLE 1, read-out: HCMV EC50", "value": 55000, "unit": "nM"}, {"measurement": "CC50", "setting": "HT4-6C Cells", "value": "> 1000", "unit": "µM"}]}, {"smiles": "CCCCCCCCCCCCCCCCCCOCCCOP(=O)(O)COC(CO)Cn1ccc(N)nc1=O", "note": "(stereo not drawn) [1-O-octadecylpropanediol-3-CDV, 1-O-octadecylpropanediol-3-cidofovir]", "values": [{"measurement": "CC50", "setting": "[7]", "value": 32, "unit": "µM"}, {"measurement": "EC50", "setting": "HSV-1", "value": 0.003, "unit": "µM"}, {"measurement": "EC50", "setting": "[5]; [9]", "value": 0.03, "unit": "nM"}, {"measurement": "CC50", "setting": "[8]", "value": 32, "unit": "µM"}]}, {"smiles": "CCCCCCCCCCCCCCCCCCOCCOP1(=O)COC(Cn2ccc(N)nc2=O)CO1", "note": "(stereo not drawn) [1-O-octadecylpropanediol-2-cCDV, 1-O-octadecylethanediol-2-cyclic cidofovir]", "values": [{"measurement": "EC50", "setting": "[5]; [9]", "value": 55000, "unit": "nM"}]}, {"smiles": "CCCCCCCCCCCCCCCCOP1(=O)CO[C@@H](Cn2ccc(N)nc2=O)CO1", "note": "(stereo partly drawn) [Hexadecyl-cCDV, hexadecyl cyclic cidofovir]", "values": [{"measurement": "CC50", "setting": "[7]", "value": 6.5, "unit": "µM"}, {"measurement": "EC50", "setting": "[5]; [9]", "value": 100, "unit": "nM"}]}, {"smiles": "CCCCCCCCCCCCCCCCCCOCCOP(=O)(O)COC(CO)Cn1ccc(N)nc1=O", "note": "(stereo not drawn) [1-O-octadecylpropanediol-2-CDV, 1-O-octadecylethanediol-2-cidofovir]", "values": [{"measurement": "EC50", "setting": "[5]; [9]", "value": 40, "unit": "nM"}]}]}
